Here are results for four compounds from patent US10645930B2, “Fungicidal mixtures based on prothioconazole and a strobilurin derivative” (BASF SE, priority 2002, dated 2020).

In experiment [1] the test system is Erysiphe [syn. Blumeria] graminis forma specialis. tritici. The experiment in a line: Activity against mildew of wheat (protective, wheat seedlings cultivar Kanzler). Format: in vivo. The settings on record: 7 days. How it is done:
The active compounds, separately or together, were formulated as a 10% emulsion in a mixture of 63% by weight of cyclohexanone and 27% by weight of emulsifier, and diluted with water to the desired concentration. Evaluation was carried out by determining the infected leaf areas in percent. These percentages were converted into efficacies. The efficacy (W) was determined as follows using Abbot's formula: [formula] α corresponds to the fungal infection of the treated plants in % and β corresponds to the fungal infection of the untreated (control) plants in % An efficacy of 0 means that the infection level of the treated plants corresponds to that of the untreated control plants; an efficacy of 100 means that the treated plants were not infected. The expected efficacies of the mixtures of the active compounds were determined using Colby's formula [R. S. Colby, Weeds 15, 20-22 (1967)] and compared with the observed efficacies. E=x+y−x·y/100 Colby's formula: • E expected efficacy, expressed in % of the untreated control, when using the mixture of the active compounds A and B at the concentrations a and b • x efficacy, expressed in % of the untreated control, when using the active compound A at the concentration a • y efficacy, expressed in % of the untreated control, when using the active compound B at the concentration b Leaves of wheat seedlings of the cultivar “Kanzler” grown in pots were sprayed to runoff point with an aqueous preparation of active compound which had been prepared from a stock solution comprising 10% of active compound, 85% of cyclohexanone. and 5% of emulsifier, and, 24 hours after the spray coating had dried on, the leaves were dusted with spores of mildew of wheat (Erysiphe [syn. Blumeria] graminis forma specialis. tritici). The test plants were then placed in a greenhouse at 20-24° C. and 60-90% relative atmospheric humidity. After 7 days, the extent of the development of the mildew was determined visually in % infection of the entire leaf area. The visually determined values for the percentage of diseased leaf areas were converted into efficacies as % of the untreated control. An efficacy of 0 means the same disease level as in the untreated control, an efficacy of 100 means a disease level of 0%. The expected efficacies for the active compound combinations were determined using Colby's formula mentioned above and compared with the observed efficacies.

The test system of the next experiment is Puccinia recondita. The experiment in a line: Curative activity against brown rust of wheat (wheat seedlings cultivar Kanzler). The class given is in vivo. The settings on record: 7 days. The procedure:
The active compounds, separately or together, were formulated as a 10% emulsion in a mixture of 63% by weight of cyclohexanone and 27% by weight of emulsifier, and diluted with water to the desired concentration. Evaluation was carried out by determining the infected leaf areas in percent. These percentages were converted into efficacies. The efficacy (W) was determined as follows using Abbot's formula: [formula] α corresponds to the fungal infection of the treated plants in % and β corresponds to the fungal infection of the untreated (control) plants in % An efficacy of 0 means that the infection level of the treated plants corresponds to that of the untreated control plants; an efficacy of 100 means that the treated plants were not infected. The expected efficacies of the mixtures of the active compounds were determined using Colby's formula [R. S. Colby, Weeds 15, 20-22 (1967)] and compared with the observed efficacies. E=x+y−x·y/100 Colby's formula: • E expected efficacy, expressed in % of the untreated control, when using the mixture of the active compounds A and B at the concentrations a and b • x efficacy, expressed in % of the untreated control, when using the active compound A at the concentration a • y efficacy, expressed in % of the untreated control, when using the active compound B at the concentration b Leaves of wheat seedlings of the cultivar “Kanzler” grown in pots were dusted with spores of brown rust (Puccinia recondita). The pots were then placed in a chamber with high atmospheric humidity (90-95%), at 20-22° C. for 24 hours. During this time, the spores germinated and the germinal tubes penetrated into the leaf tissue. The next day, the infected plants were sprayed to runoff point with an aqueous formulation of active compound prepared from a stock solution comprising 10% of active compound, 85% of cyclohexanone and 5% of emulsifier. After the spray coating had dried on, the test plants were cultivated in a greenhouse at 20-22° C. and 65-70% relative atmospheric humidity for 7 days. Thereafter, the extent of the rust fungus development on the leaves was determined. The visually determined values for the percentage of diseased leaf areas were converted into efficacies as % of the untreated control. An efficacy of 0 means the same disease level as in the untreated control, an efficacy of 100 means a disease level of 0%. The expected efficacies for the combinations of active compounds were determined using Colby's formula mentioned above and compared with the observed efficacies.

The mark [2] stands for this setting: 0.015 ppm active compound in the spray liquor.
Setting [3] is: 0.06 ppm active compound in the spray liquor.
[4] abbreviates: 0.25 ppm active compound in the spray liquor.
Where [5] appears, read: 1 ppm active compound in the spray liquor.
Setting [6] is: 4 ppm active compound in the spray liquor.

On to `OC(Cc1ccccc1Cl)(Cn1nc[nH]c1=S)C1(Cl)CC1` (centres unmarked) [Compound I, 2-[2-(1-chlorocyclopropyl)-3-(2-chlorophenyl)-2-hydroxypropyl]-2,4-dihydro-[1,2,4]-triazole-3-thione], for which the “Efficacy in % of the untreated control” value in experiment [1] (setting [2]) was 0 % of the untreated control; in experiment [1] (setting [3]) it was 0 % of the untreated control; in experiment [1] (setting [4]), 0 % of the untreated control; in experiment [1] (setting [5]), 0 % of the untreated control; in experiment [1] (setting [6]), 22 % of the untreated control; with Puccinia recondita (0.006 ppm active compound in the spray liquor) it was 0 % of the untreated control. For the same compound, the “Efficacy in % of the untreated control” value in the experiment on Puccinia recondita (setting [2]), in the experiment on Puccinia recondita (setting [4]) and in the experiment with Puccinia recondita (setting [5]) was 0 % of the untreated control in each case.
Regarding `CO/N=C(/C(=O)OC)c1ccccc1CO/N=C(\C)c1cccc(C(F)(F)F)c1` [Compound II, trifloxystrobin], the “Efficacy in % of the untreated control” value is reported as 0 % of the untreated control in experiment [1] (setting [3]); 22 % of the untreated control in experiment [1] (setting [4]); 44 % of the untreated control in experiment [1] (setting [5]); 83 % of the untreated control in experiment [1] (setting [6]); 0 % of the untreated control in the experiment with Puccinia recondita (setting [3]); 0 % of the untreated control in the experiment with Puccinia recondita (setting [4]).
In the case of `CO/C=C(/C(=O)OC)c1ccccc1COc1cccc(C(F)(F)F)n1` [Compound III, picoxystrobin], the “Efficacy in % of the untreated control” value is 11 % of the untreated control in experiment [1] (setting [4]), 0 % of the untreated control in the experiment with Puccinia recondita (setting [3]), 0 % of the untreated control in the experiment with Puccinia recondita (setting [4]) and 33 % of the untreated control in the experiment with Puccinia recondita (setting [5]).
As to `COC(=O)N(OC)c1ccccc1COc1ccn(-c2ccc(Cl)cc2)n1` [Compound IV, pyraclostrobin], the “Efficacy in % of the untreated control” value (in experiment [1] (setting [4]); in experiment [1] (setting [5]); with Puccinia recondita (setting [3]); with Puccinia recondita (setting [4])) was 0 % of the untreated control each time.
